Reference: patent publication US9944699B2, “In vitro method for identifying compounds of the Nav 1.9 sodium channel intended for the treatment of an inflammatory skin disease” (GALDERMA RESEARCH & DEVELOPMENT, priority 2013, dated 2018)
Entries after “also recorded” stand apart in the source; their conditions may differ.

Experiments:
Nav 1.5 = Nav 1.5 (Homo sapiens, UniProt Q14524); conditions: cited from earlier work
Nav 1.8 = Nav 1.8 (Homo sapiens, UniProt Q9Y5Y9); conditions: cited from earlier work
Nav 1.9 = Nav 1.9 (Homo sapiens, UniProt Q9UI33); conditions: cited from earlier work
[1] = system: primary cultures of neurones from spinal ganglia of KO mice for Nav 1.9; test: Release of CGRP by primary neurone cultures after treatment with capsaicin (ELISA), Nav 1.9 KO mice; assay type: cell-based, mouse; conditions: capsaicin 300 nM, 15 min; neurone cultures from Nav 1.9 KO mice; versus without treatment

Sequence of Nav 1.9 (Q9UI33 whole entry, looked up): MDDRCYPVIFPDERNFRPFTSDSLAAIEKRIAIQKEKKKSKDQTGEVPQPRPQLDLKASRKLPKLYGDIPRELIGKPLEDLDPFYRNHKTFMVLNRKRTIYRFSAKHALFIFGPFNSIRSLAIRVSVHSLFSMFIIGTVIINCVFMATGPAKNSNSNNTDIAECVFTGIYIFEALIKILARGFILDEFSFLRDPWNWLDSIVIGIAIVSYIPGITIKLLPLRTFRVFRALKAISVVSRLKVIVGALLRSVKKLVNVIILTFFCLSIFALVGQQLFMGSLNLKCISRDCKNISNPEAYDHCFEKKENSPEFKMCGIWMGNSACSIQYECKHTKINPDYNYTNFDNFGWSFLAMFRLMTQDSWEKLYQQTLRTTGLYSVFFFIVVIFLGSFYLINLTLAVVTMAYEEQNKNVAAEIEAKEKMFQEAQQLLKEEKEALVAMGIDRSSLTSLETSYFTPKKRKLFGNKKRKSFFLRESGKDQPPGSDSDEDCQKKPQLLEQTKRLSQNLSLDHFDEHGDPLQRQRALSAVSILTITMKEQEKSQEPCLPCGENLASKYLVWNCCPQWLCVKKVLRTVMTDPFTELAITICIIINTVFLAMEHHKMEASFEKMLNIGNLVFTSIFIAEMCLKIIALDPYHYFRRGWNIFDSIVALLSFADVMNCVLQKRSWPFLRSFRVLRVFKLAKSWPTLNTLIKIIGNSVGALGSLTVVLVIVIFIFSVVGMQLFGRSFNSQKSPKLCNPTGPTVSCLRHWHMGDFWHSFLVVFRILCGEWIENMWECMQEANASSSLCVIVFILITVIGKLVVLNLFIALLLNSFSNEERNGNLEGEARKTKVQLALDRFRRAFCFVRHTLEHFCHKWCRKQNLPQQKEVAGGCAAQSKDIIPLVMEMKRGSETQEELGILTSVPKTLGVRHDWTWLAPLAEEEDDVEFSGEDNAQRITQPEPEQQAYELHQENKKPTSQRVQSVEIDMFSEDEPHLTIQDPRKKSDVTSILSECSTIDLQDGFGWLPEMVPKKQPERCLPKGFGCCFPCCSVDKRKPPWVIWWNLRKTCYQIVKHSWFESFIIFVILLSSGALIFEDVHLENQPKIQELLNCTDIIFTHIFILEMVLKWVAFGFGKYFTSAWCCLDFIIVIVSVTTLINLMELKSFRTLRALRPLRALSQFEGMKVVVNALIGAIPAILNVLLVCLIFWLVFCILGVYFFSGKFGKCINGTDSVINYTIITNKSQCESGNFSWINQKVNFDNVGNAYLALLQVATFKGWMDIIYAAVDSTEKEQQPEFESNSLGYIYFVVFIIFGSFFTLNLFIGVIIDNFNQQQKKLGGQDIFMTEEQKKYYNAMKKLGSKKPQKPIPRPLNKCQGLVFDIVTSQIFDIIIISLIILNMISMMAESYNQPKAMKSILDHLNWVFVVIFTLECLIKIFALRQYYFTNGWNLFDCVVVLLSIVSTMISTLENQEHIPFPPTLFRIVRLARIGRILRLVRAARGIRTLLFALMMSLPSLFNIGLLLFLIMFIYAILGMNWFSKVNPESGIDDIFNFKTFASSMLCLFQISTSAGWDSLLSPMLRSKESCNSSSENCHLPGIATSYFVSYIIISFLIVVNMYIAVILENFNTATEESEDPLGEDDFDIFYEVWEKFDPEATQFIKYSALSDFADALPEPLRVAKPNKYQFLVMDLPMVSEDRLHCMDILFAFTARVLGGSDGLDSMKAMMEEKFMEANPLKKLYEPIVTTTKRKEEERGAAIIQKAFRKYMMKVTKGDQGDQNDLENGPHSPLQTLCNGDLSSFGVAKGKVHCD
Sequence of Nav 1.8 (Q9Y5Y9 whole entry, looked up): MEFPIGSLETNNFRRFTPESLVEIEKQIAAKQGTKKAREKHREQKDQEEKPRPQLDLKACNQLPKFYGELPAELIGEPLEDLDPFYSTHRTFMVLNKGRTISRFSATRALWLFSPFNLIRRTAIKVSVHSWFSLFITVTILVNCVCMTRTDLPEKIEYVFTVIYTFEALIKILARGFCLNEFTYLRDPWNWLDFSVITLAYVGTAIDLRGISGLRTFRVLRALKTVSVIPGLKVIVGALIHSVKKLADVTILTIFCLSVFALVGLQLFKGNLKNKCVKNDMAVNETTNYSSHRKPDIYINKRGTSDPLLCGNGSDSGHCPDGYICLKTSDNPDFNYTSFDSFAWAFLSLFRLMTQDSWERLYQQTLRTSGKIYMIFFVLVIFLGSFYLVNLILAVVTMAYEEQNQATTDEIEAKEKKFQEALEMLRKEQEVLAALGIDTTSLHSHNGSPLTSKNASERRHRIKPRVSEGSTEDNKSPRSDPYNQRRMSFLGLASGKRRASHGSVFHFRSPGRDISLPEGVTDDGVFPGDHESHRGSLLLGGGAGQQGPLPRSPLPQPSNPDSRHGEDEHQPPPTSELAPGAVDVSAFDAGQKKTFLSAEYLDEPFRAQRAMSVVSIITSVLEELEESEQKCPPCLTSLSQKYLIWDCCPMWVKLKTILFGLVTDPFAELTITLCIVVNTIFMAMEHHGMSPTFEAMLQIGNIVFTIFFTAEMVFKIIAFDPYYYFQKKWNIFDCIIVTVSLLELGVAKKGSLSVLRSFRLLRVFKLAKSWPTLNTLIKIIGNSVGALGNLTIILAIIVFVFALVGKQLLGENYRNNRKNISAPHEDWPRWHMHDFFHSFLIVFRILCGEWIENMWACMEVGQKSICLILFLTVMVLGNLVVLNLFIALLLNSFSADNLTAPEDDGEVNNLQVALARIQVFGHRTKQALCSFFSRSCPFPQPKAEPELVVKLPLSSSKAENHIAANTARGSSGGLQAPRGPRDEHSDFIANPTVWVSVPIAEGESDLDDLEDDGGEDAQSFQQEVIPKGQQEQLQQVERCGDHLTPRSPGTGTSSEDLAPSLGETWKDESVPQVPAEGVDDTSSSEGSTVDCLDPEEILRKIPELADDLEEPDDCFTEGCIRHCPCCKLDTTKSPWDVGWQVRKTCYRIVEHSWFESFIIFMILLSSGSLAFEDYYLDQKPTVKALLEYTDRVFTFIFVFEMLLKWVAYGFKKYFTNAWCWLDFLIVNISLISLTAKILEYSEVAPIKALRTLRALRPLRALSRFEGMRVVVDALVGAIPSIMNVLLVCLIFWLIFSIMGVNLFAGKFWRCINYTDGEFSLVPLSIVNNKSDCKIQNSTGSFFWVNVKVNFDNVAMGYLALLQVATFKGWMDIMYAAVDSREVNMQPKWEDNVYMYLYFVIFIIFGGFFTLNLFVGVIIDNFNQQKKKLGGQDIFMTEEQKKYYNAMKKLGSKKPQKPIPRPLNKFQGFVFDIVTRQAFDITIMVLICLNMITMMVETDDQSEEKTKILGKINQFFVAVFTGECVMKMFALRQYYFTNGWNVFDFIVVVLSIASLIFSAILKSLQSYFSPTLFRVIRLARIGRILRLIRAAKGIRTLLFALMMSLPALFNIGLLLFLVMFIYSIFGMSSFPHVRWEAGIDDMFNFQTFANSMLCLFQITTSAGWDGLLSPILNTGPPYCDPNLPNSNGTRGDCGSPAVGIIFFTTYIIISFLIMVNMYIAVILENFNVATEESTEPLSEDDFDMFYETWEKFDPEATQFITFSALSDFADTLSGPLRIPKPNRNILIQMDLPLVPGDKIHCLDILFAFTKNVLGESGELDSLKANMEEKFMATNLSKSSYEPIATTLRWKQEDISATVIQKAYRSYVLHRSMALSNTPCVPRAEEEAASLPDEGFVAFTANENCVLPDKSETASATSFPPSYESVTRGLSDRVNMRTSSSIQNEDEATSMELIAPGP

| Compound | sensitivity to tetrodotoxin (TTX) (Nav 1.5) | sensitivity to tetrodotoxin (TTX) (Nav 1.8) | sensitivity to tetrodotoxin (TTX) (Nav 1.9) | EC50 (Nav 1.9; read-out: EC50 of the TTX for Nav 1.9) [µM] | variation in the amount of CGRP released in the supernatant [1] |
| --- | --- | --- | --- | --- | --- |
| NC1=N[C@H](O)[C@H]2[C@H]3O[C@]4(O)O[C@@H]([C@@H](O)[C@@]2(N1)[C@@H]4O)[C@]3(O)CO [TTX, tetrodotoxin] | resistant | resistant | resistant | ~200 |  |
| COc1cc(CNC(=O)CCCC/C=C/C(C)C)ccc1O [capsaicin] |  |  |  |  | no variation; also recorded: no increase |
